Our source for the relative viability values is the supplement of paper PMC10307832.

Test in all cases: relative viability (nuclei count vs DMSO), 5 days (fraction); higher = more cells survive
Compound in the experiment “Vemurafenib + Dasatinib”: CCCS(=O)(=O)Nc1ccc(F)c(C(=O)c2c[nH]c3ncc(-c4ccc(Cl)cc4)cc23)c1F [Vemurafenib] + Cc1nc(Nc2ncc(C(=O)Nc3c(C)cccc3Cl)s2)cc(N2CCN(CCO)CC2)n1 [Dasatinib] (partner 0.075 µM)
In short, it runs like this: (§1)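 Relative viability divides the nuclei count in treated wells by that in vehicle wells. Lung cancer cell lines were seeded in 1536-well plates, dosed by pin tool the next day, and fixed and stained after 5 days in one step with final 0.05% Triton X-100, 1% formaldehyde and 1 ug/ml Hoechst. Dosing was a single drug or a fixed anchor-drug dose plus five library-drug doses (not always all listed) in √10 steps, and values are medians of duplicate plates imaged at 4×.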

Compound in the experiment “OSI-027 + Bortezomib”: COc1cccc2cc(-c3nc([C@H]4CC[C@H](C(=O)O)CC4)n4ncnc(N)c34)[nH]c12 [OSI-027] + CC(C)C[C@H](NC(=O)[C@H](Cc1ccccc1)NC(=O)c1cnccn1)B(O)O [Bortezomib] (partner 0.002 µM)
In short, it runs like this:
as §1

Compound in the experiment “OSI-027 + Olaparib”: COc1cccc2cc(-c3nc([C@H]4CC[C@H](C(=O)O)CC4)n4ncnc(N)c34)[nH]c12 [OSI-027] + O=C(c1cc(Cc2n[nH]c(=O)c3ccccc23)ccc1F)N1CCN(C(=O)C2CC2)CC1 [Olaparib] (partner 8 µM)
Put shortly:
as §1

Compound in the experiment “Alpelisib + Decitabine”: Cc1nc(NC(=O)N2CCC[C@H]2C(N)=O)sc1-c1ccnc(C(C)(C)C(F)(F)F)c1 [Alpelisib] + Nc1ncn([C@H]2C[C@H](O)[C@@H](CO)O2)c(=O)n1 [Decitabine] (partner 2 µM)
In short, it runs like this: as §1

NCI-H1651: the relative viability in the experiment with Vemurafenib + Dasatinib (first compound 0.03162 µM) was found to be 0.417; with Vemurafenib + Dasatinib (first compound 0.1 µM), 0.462; in the experiment with Vemurafenib + Dasatinib (first compound 0.3162 µM), 0.277; with Vemurafenib + Dasatinib (first compound 1 µM), 0.452; with OSI-027 + Bortezomib (first compound 0.01 µM), 0.929; with OSI-027 + Bortezomib (first compound 0.03162 µM) it was 0.954. Besides, the relative viability is 0.884 in the experiment with OSI-027 + Bortezomib (first compound 0.1 µM); 0.929 in the experiment with OSI-027 + Bortezomib (first compound 0.3162 µM); 0.737 in the experiment with OSI-027 + Bortezomib (first compound 1 µM); 0.199 in the experiment with OSI-027 + Olaparib (first compound 0.01 µM); 0.173 with OSI-027 + Olaparib (first compound 0.03162 µM); 0.178 with OSI-027 + Olaparib (first compound 0.1 µM). Also, the relative viability is 0.189 with OSI-027 + Olaparib (first compound 0.3162 µM); 0.186 with OSI-027 + Olaparib (first compound 1 µM); 0.625 with Alpelisib + Decitabine (first compound 0.04 µM); 0.557 in the experiment with Alpelisib + Decitabine (first compound 0.1265 µM); 0.703 in the experiment with Alpelisib + Decitabine (first compound 0.4 µM); 0.598 in the experiment with Alpelisib + Decitabine (first compound 1.265 µM). Besides, in the experiment with Alpelisib + Decitabine (first compound 4 µM), the relative viability came out at 0.439.

For NCI-H1666, the relative viability worked out at 0.741 with Vemurafenib + Dasatinib (first compound 0.03162 µM); 0.837 with Vemurafenib + Dasatinib (first compound 0.1 µM); 0.644 with Vemurafenib + Dasatinib (first compound 0.3162 µM); 0.709 with Vemurafenib + Dasatinib (first compound 1 µM); 0.707 in the experiment with OSI-027 + Bortezomib (first compound 0.01 µM); 0.9 with OSI-027 + Bortezomib (first compound 0.03162 µM). Further, the relative viability with OSI-027 + Bortezomib (first compound 0.1 µM) amounted to 0.688; in the experiment with OSI-027 + Bortezomib (first compound 0.3162 µM) it was 0.425; with OSI-027 + Bortezomib (first compound 1 µM), 0.372; in the experiment with OSI-027 + Olaparib (first compound 0.01 µM) it was 0.777; with OSI-027 + Olaparib (first compound 0.03162 µM) it was 0.67; with OSI-027 + Olaparib (first compound 0.1 µM), 0.744. The relative viability in the experiment with OSI-027 + Olaparib (first compound 0.3162 µM) amounted to 0.77; with OSI-027 + Olaparib (first compound 1 µM) it was 0.71; with Alpelisib + Decitabine (first compound 0.04 µM) it was 0.686; with Alpelisib + Decitabine (first compound 0.1265 µM) it was 0.708; with Alpelisib + Decitabine (first compound 0.4 µM), 0.781; with Alpelisib + Decitabine (first compound 1.265 µM), 0.694. Further, the relative viability in the experiment with Alpelisib + Decitabine (first compound 4 µM) is 0.612.

As for NCI-H1734, the relative viability with Vemurafenib + Dasatinib (first compound 0.03162 µM) was 0.436; with Vemurafenib + Dasatinib (first compound 0.1 µM), 0.474; in the experiment with Vemurafenib + Dasatinib (first compound 0.3162 µM) it was 0.357; in the experiment with Vemurafenib + Dasatinib (first compound 1 µM), 0.432; with OSI-027 + Bortezomib (first compound 0.01 µM), 0.958; with OSI-027 + Bortezomib (first compound 0.03162 µM) it was 0.809. The relative viability with OSI-027 + Bortezomib (first compound 0.1 µM) worked out at 0.852; with OSI-027 + Bortezomib (first compound 0.3162 µM), 0.834; in the experiment with OSI-027 + Bortezomib (first compound 1 µM), 0.47; in the experiment with OSI-027 + Olaparib (first compound 0.01 µM), 0.656; in the experiment with OSI-027 + Olaparib (first compound 0.03162 µM), 0.597; with OSI-027 + Olaparib (first compound 0.1 µM), 0.599. The relative viability with OSI-027 + Olaparib (first compound 0.3162 µM) came out at 0.566; in the experiment with OSI-027 + Olaparib (first compound 1 µM) it was 0.401; with Alpelisib + Decitabine (first compound 0.04 µM), 0.532; with Alpelisib + Decitabine (first compound 0.1265 µM) it was 0.478; in the experiment with Alpelisib + Decitabine (first compound 0.4 µM), 0.497; in the experiment with Alpelisib + Decitabine (first compound 1.265 µM) it was 0.477. The relative viability with Alpelisib + Decitabine (first compound 4 µM) is 0.255.

NCI-H1755: the relative viability with Vemurafenib + Dasatinib (first compound 0.03162 µM) came out at 0.396; with Vemurafenib + Dasatinib (first compound 0.1 µM), 0.406; with Vemurafenib + Dasatinib (first compound 0.3162 µM), 0.243; in the experiment with Vemurafenib + Dasatinib (first compound 1 µM), 0.43; in the experiment with OSI-027 + Bortezomib (first compound 0.01 µM) it was 1; with OSI-027 + Bortezomib (first compound 0.03162 µM) it was 0.96. For the same cell line, the relative viability in the experiment with OSI-027 + Bortezomib (first compound 0.1 µM) came to 0.983; in the experiment with OSI-027 + Bortezomib (first compound 0.3162 µM) it was 0.89; with OSI-027 + Bortezomib (first compound 1 µM), 0.556; with OSI-027 + Olaparib (first compound 0.01 µM) it was 0.874; with OSI-027 + Olaparib (first compound 0.03162 µM), 0.849; with OSI-027 + Olaparib (first compound 0.1 µM), 0.883. The relative viability amounted to 0.761 in the experiment with OSI-027 + Olaparib (first compound 0.3162 µM); 0.486 with OSI-027 + Olaparib (first compound 1 µM); 0.661 in the experiment with Alpelisib + Decitabine (first compound 0.04 µM); 0.69 with Alpelisib + Decitabine (first compound 0.1265 µM); 0.778 with Alpelisib + Decitabine (first compound 0.4 µM); 0.678 with Alpelisib + Decitabine (first compound 1.265 µM). In addition, in the experiment with Alpelisib + Decitabine (first compound 4 µM), the relative viability came out at 0.575.

For the cell line NCI-H1792, the relative viability with Vemurafenib + Dasatinib (first compound 0.03162 µM) is 0.84; with Vemurafenib + Dasatinib (first compound 0.1 µM) it was 0.733; with Vemurafenib + Dasatinib (first compound 1 µM), 0.815; in the experiment with OSI-027 + Bortezomib (first compound 0.01 µM), 1.03; with OSI-027 + Bortezomib (first compound 0.03162 µM) it was 0.688; in the experiment with OSI-027 + Bortezomib (first compound 0.1 µM), 0.858. For the same cell line, the relative viability is 0.899 with OSI-027 + Bortezomib (first compound 0.3162 µM); 0.212 with OSI-027 + Bortezomib (first compound 1 µM); 0.33 with OSI-027 + Olaparib (first compound 0.01 µM); 0.296 in the experiment with OSI-027 + Olaparib (first compound 0.03162 µM); 0.247 with OSI-027 + Olaparib (first compound 0.1 µM); 0.354 with OSI-027 + Olaparib (first compound 0.3162 µM). In addition, the relative viability is 0.142 with OSI-027 + Olaparib (first compound 1 µM); 0.444 with Alpelisib + Decitabine (first compound 0.04 µM); 0.368 in the experiment with Alpelisib + Decitabine (first compound 0.1265 µM); 0.581 with Alpelisib + Decitabine (first compound 0.4 µM); 0.443 in the experiment with Alpelisib + Decitabine (first compound 1.265 µM); 0.401 in the experiment with Alpelisib + Decitabine (first compound 4 µM).

NCI-H1915: the relative viability amounted to 0.294 in the experiment with Vemurafenib + Dasatinib (first compound 0.03162 µM); 0.343 with Vemurafenib + Dasatinib (first compound 0.1 µM); 0.267 with Vemurafenib + Dasatinib (first compound 0.3162 µM); 0.358 in the experiment with Vemurafenib + Dasatinib (first compound 1 µM); 1.04 in the experiment with OSI-027 + Bortezomib (first compound 0.01 µM); 0.995 with OSI-027 + Bortezomib (first compound 0.03162 µM). Moreover, the relative viability with OSI-027 + Bortezomib (first compound 0.1 µM) turned out to be 1.04; with OSI-027 + Bortezomib (first compound 0.3162 µM), 0.968; with OSI-027 + Bortezomib (first compound 1 µM) it was 0.898; with OSI-027 + Olaparib (first compound 0.01 µM), 0.284; with OSI-027 + Olaparib (first compound 0.03162 µM), 0.274; in the experiment with OSI-027 + Olaparib (first compound 0.1 µM), 0.259. For the same cell line, the relative viability with OSI-027 + Olaparib (first compound 0.3162 µM) turned out to be 0.298; with OSI-027 + Olaparib (first compound 1 µM), 0.237; with Alpelisib + Decitabine (first compound 0.04 µM), 0.267; with Alpelisib + Decitabine (first compound 0.1265 µM) it was 0.285; in the experiment with Alpelisib + Decitabine (first compound 0.4 µM) it was 0.255; with Alpelisib + Decitabine (first compound 1.265 µM) it was 0.265. Also, in the experiment with Alpelisib + Decitabine (first compound 4 µM), the relative viability was found to be 0.251.

Turning to NCI-H1975, the relative viability stood at 0.359 with Vemurafenib + Dasatinib (first compound 0.03162 µM); 0.339 with Vemurafenib + Dasatinib (first compound 0.1 µM); 0.206 in the experiment with Vemurafenib + Dasatinib (first compound 0.3162 µM); 0.378 with Vemurafenib + Dasatinib (first compound 1 µM); 0.41 in the experiment with OSI-027 + Bortezomib (first compound 0.01 µM); 0.337 with OSI-027 + Bortezomib (first compound 0.03162 µM). Besides, the relative viability with OSI-027 + Bortezomib (first compound 0.1 µM) stood at 0.464; with OSI-027 + Bortezomib (first compound 0.3162 µM), 0.318; with OSI-027 + Bortezomib (first compound 1 µM) it was 0.274; with OSI-027 + Olaparib (first compound 0.01 µM), 0.803; in the experiment with OSI-027 + Olaparib (first compound 0.03162 µM), 0.609; with OSI-027 + Olaparib (first compound 0.1 µM), 0.755. Further, the relative viability with OSI-027 + Olaparib (first compound 0.3162 µM) was determined as 0.76; with OSI-027 + Olaparib (first compound 1 µM), 0.478; in the experiment with Alpelisib + Decitabine (first compound 0.04 µM), 0.39; in the experiment with Alpelisib + Decitabine (first compound 0.1265 µM) it was 0.357; with Alpelisib + Decitabine (first compound 0.4 µM) it was 0.387; with Alpelisib + Decitabine (first compound 1.265 µM) it was 0.366. The relative viability with Alpelisib + Decitabine (first compound 4 µM) worked out at 0.268.

Regarding NCI-H1993, the relative viability was 0.298 with Vemurafenib + Dasatinib (first compound 0.03162 µM); 0.694 with Vemurafenib + Dasatinib (first compound 0.3162 µM); 0.621 with Vemurafenib + Dasatinib (first compound 1 µM); 1.11 with OSI-027 + Bortezomib (first compound 0.01 µM); 0.898 with OSI-027 + Bortezomib (first compound 0.03162 µM); 0.788 with OSI-027 + Bortezomib (first compound 0.1 µM). Moreover, the relative viability worked out at 0.625 with OSI-027 + Bortezomib (first compound 0.3162 µM); 0.542 with OSI-027 + Bortezomib (first compound 1 µM); 1.03 in the experiment with OSI-027 + Olaparib (first compound 0.01 µM); 0.894 in the experiment with OSI-027 + Olaparib (first compound 0.03162 µM); 0.902 with OSI-027 + Olaparib (first compound 0.1 µM); 0.653 in the experiment with OSI-027 + Olaparib (first compound 0.3162 µM). Also, the relative viability stood at 0.522 with OSI-027 + Olaparib (first compound 1 µM); 0.547 in the experiment with Alpelisib + Decitabine (first compound 0.04 µM); 0.561 with Alpelisib + Decitabine (first compound 0.1265 µM); 0.592 in the experiment with Alpelisib + Decitabine (first compound 0.4 µM); 0.494 with Alpelisib + Decitabine (first compound 1.265 µM); 0.671 with Alpelisib + Decitabine (first compound 4 µM).
